Laboratory results: patent US20080317858A1, “FORMULATIONS OF N-(2-ACETYL-4,6-DIMETHYLPHENYL)-3--2-THIOPHENECARBOXAMIDE” (priority 2007, published 2008)

melting point: 158 to 160 °C
SMILES: CC(=O)c1cc(C)cc(C)c1NC(=O)c1sccc1S(=O)(=O)Nc1onc(C)c1C [N-(2-acetyl-4,6-dimethylphenyl)-3-{[(3,4 dimethyl-5-isoxazolyl)amino]sulfonyl}-2-thiophenecarboxamide]
